Measurements from PubChem BioAssay AID256 (DTP/NCI, 2004).
“And” between values parts separate entries of the source, which are not always exact repeats. Identical values can stand only once. Inconclusive results and toxic doses are left out.

System: CD2F1 mice, L1210 leukemia ip, survival T/C
Assay: NCI In Vivo Anticancer Drug Screen. Data for tumor model L1210 Leukemia (intraperitoneal) in CD2F1 (CDF1) mice
Settings: higher = longer survival
Outline: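 Antitumor effect is scored in animals hosting a serially transplanted tumor. Values compare compound-dosed animals against vehicle-only controls as a simple quotient.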

[1] = endpoint: mean survival time, dose: 100.0 mg/kg/injection, schedule: Q04DX003 (ip), vehicle: saline with Tween-80
[2] = endpoint: mean survival time, dose: 200.0 mg/kg/injection, schedule: Q04DX003 (ip), vehicle: saline with Tween-80
[3] = endpoint: mean survival time, dose: 400.0 mg/kg/injection, schedule: Q04DX003 (ip), vehicle: saline with Tween-80
[4] = endpoint: mean survival time, dose: 100.0 mg/kg/injection, schedule: Q01DX009 (ip), vehicle: saline

COc1ccc(N=C(C)C2C(=O)c3ccccc3C2=O)cc1
T/C (endpoint: median survival time, dose: 50.0 mg/kg/injection, schedule: Q01DX005 (ip), vehicle: DMSO): 101 % of control
T/C (endpoint: median survival time, dose: 100.0 mg/kg/injection, schedule: Q01DX005 (ip), vehicle: DMSO): 101 % of control
T/C (endpoint: median survival time, dose: 200.0 mg/kg/injection, schedule: Q01DX005 (ip), vehicle: DMSO): 103 % of control
T/C (endpoint: median survival time, dose: 400.0 mg/kg/injection, schedule: Q01DX005 (ip), vehicle: DMSO): 103 % of control
T/C (endpoint: median survival time, dose: 800.0 mg/kg/injection, schedule: Q01DX005 (ip), vehicle: DMSO): 101 % of control

CC1(C)N=C(N)N=C(N)N1c1cccc(CCCc2ccccc2)c1
T/C (endpoint: mean survival time, dose: 6.25 mg/kg/injection, schedule: Q01DX001 (ip), vehicle: saline): 96 % of control

CCC(=O)NC1CCCCC1
T/C (endpoint: mean survival time, dose: 100.0 mg/kg/injection, schedule: Q01DX001 (ip), vehicle: saline with Tween-80): 95 % of control
T/C (endpoint: mean survival time, dose: 200.0 mg/kg/injection, schedule: Q01DX001 (ip), vehicle: saline with Tween-80): 101 % of control
T/C (endpoint: mean survival time, dose: 400.0 mg/kg/injection, schedule: Q01DX001 (ip), vehicle: saline with Tween-80): 102 % of control

COC(=O)[C@@H]1c2cc3c(c(O)c2[C@@H](OC2OC(C)C(OC)C(C)(OC)C2OC)C[C@]1(C)O)C(=O)c1c(O)cc2c(c1C3=O)O[C@H]1O[C@]2(C)[C@H](O)[C@@H](N(C)C)[C@@H]1O (stereo not given in full)
T/C (endpoint: mean survival time, dose: 0.25 mg/kg/injection, schedule: Q01DX009 (ip), vehicle: other): 120 % of control and 112 % of control
T/C (endpoint: mean survival time, dose: 0.5 mg/kg/injection, schedule: Q01DX009 (ip), vehicle: other): 116 % of control and 108 % of control
T/C (endpoint: mean survival time, dose: 1.0 mg/kg/injection, schedule: Q01DX009 (ip), vehicle: other): 93 % of control and 110 % of control

Cc1ccc(C2(C#N)CCCC2)cc1
T/C (endpoint: mean survival time, dose: 100.0 mg/kg/injection, schedule: Q01DX009 (ip), vehicle: saline sonified): 97 % of control
T/C [1]: 97 % of control
T/C (endpoint: mean survival time, dose: 200.0 mg/kg/injection, schedule: Q01DX009 (ip), vehicle: saline sonified): 97 % of control
T/C [2]: 97 % of control
T/C (endpoint: mean survival time, dose: 400.0 mg/kg/injection, schedule: Q01DX009 (ip), vehicle: saline sonified): 88 % of control
T/C [3]: 97 % of control

CCOc1ccc2c(c1)c(CC(=O)O)cn2C
T/C (endpoint: mean survival time, dose: 100.0 mg/kg/injection, schedule: Q01DX001 (ip), vehicle: other): 98 % of control
T/C (endpoint: mean survival time, dose: 200.0 mg/kg/injection, schedule: Q01DX001 (ip), vehicle: other): 101 % of control
T/C (endpoint: mean survival time, dose: 400.0 mg/kg/injection, schedule: Q01DX001 (ip), vehicle: other): 98 % of control

O=[N+]([O-])c1ccc(Cl)c(S(=O)O)c1
T/C [4]: 95 % of control
T/C (endpoint: mean survival time, dose: 100.0 mg/kg/injection, schedule: Q04DX003 (ip), vehicle: saline): 110 % of control
T/C (endpoint: mean survival time, dose: 200.0 mg/kg/injection, schedule: Q01DX009 (ip), vehicle: saline): 106 % of control
T/C (endpoint: mean survival time, dose: 200.0 mg/kg/injection, schedule: Q04DX003 (ip), vehicle: saline): 102 % of control
T/C (endpoint: mean survival time, dose: 400.0 mg/kg/injection, schedule: Q01DX009 (ip), vehicle: saline): 103 % of control
T/C (endpoint: mean survival time, dose: 400.0 mg/kg/injection, schedule: Q04DX003 (ip), vehicle: saline): 106 % of control

CN1CCN(c2ccc3nc(-c4ccc5nc(-c6ccc(O)cc6)[nH]c5c4)[nH]c3c2)CC1
T/C (endpoint: mean survival time, dose: 6.25 mg/kg/injection, schedule: Q01DX009 (ip), vehicle: saline): 124 % of control
T/C (endpoint: mean survival time, dose: 12.5 mg/kg/injection, schedule: Q01DX009 (ip), vehicle: saline): 124 % of control
T/C (endpoint: mean survival time, dose: 25.0 mg/kg/injection, schedule: Q01DX009 (ip), vehicle: saline): 183 % of control
T/C (endpoint: mean survival time, dose: 50.0 mg/kg/injection, schedule: Q01DX009 (ip), vehicle: saline): 238 % of control and 314 % of control
T/C [4]: 294 % of control
T/C (endpoint: median survival time, dose: 6.25 mg/kg/injection, schedule: Q01DX009 (ip), vehicle: saline): 124 % of control
T/C (endpoint: median survival time, dose: 12.5 mg/kg/injection, schedule: Q01DX009 (ip), vehicle: saline): 117 % of control and 120 % of control
T/C (endpoint: median survival time, dose: 18.0 mg/kg/injection, schedule: Q01DX005 (ip), vehicle: saline): 119 % of control
T/C (endpoint: median survival time, dose: 18.0 mg/kg/injection, schedule: Q01DX005 (iv), vehicle: saline): 116 % of control
T/C (endpoint: median survival time, dose: 37.0 mg/kg/injection, schedule: Q01DX005 (iv), vehicle: saline): 115 % of control
T/C (endpoint: median survival time, dose: 50.0 mg/kg/injection, schedule: Q01DX005 (oral), vehicle: saline): 101 % of control
T/C (endpoint: median survival time, dose: 50.0 mg/kg/injection, schedule: Q01DX009 (ip), vehicle: saline): 226 % of control and 344 % of control
T/C (endpoint: median survival time, dose: 75.0 mg/kg/injection, schedule: Q01DX005 (ip), vehicle: saline): 151 % of control
T/C (endpoint: median survival time, dose: 100.0 mg/kg/injection, schedule: Q01DX005 (oral), vehicle: saline): 96 % of control
T/C (endpoint: median survival time, dose: 150.0 mg/kg/injection, schedule: Q01DX005 (ip), vehicle: saline): 348 % of control
T/C (endpoint: median survival time, dose: 200.0 mg/kg/injection, schedule: Q01DX005 (oral), vehicle: saline): 94 % of control
T/C (endpoint: median survival time, dose: 200.0 mg/kg/injection, schedule: Q01DX009 (ip), vehicle: saline): 116 % of control and 91 % of control
T/C (endpoint: median survival time, dose: 400.0 mg/kg/injection, schedule: Q01DX005 (oral), vehicle: saline): 96 % of control
T/C (endpoint: median survival time, dose: 800.0 mg/kg/injection, schedule: Q01DX005 (oral), vehicle: saline): 94 % of control

C=C1C(O)C2(O)OCC34C(CC5C(C)=CC(=O)C(O)C5(C)C23)OC(=O)C(OC(=O)C(C)(O)CC)C14 (stereo not given)
T/C (endpoint: mean survival time, dose: 0.25 mg/kg/injection, schedule: Q01DX009 (ip), vehicle: saline + alcohol): 98 % of control
T/C (endpoint: mean survival time, dose: 0.5 mg/kg/injection, schedule: Q01DX009 (ip), vehicle: saline + alcohol): 100 % of control
T/C (endpoint: mean survival time, dose: 1.0 mg/kg/injection, schedule: Q01DX009 (ip), vehicle: saline + alcohol): 102 % of control
T/C (endpoint: mean survival time, dose: 2.0 mg/kg/injection, schedule: Q01DX009 (ip), vehicle: saline + alcohol): 90 % of control

CCN(CC)CCCC(C)NCCCCNC(C)CCCN(CC)CC (stereo not given)
T/C (endpoint: mean survival time, dose: 12.5 mg/kg/injection, schedule: Q01DX009 (ip), vehicle: water): 90 % of control
T/C (endpoint: mean survival time, dose: 25.0 mg/kg/injection, schedule: Q01DX009 (ip), vehicle: water): 92 % of control

CC(=O)ON1C(=O)C=CC1=O
T/C (endpoint: mean survival time, dose: 25.0 mg/kg/injection, schedule: Q01DX009 (ip), vehicle: Klucel (hydroxypropylcellulose) (HPC)): 95 % of control
T/C (endpoint: mean survival time, dose: 50.0 mg/kg/injection, schedule: Q01DX009 (ip), vehicle: Klucel (hydroxypropylcellulose) (HPC)): 90 % of control

CN1CCC(Br)(C(=O)c2ccccc2)CC1
T/C (endpoint: mean survival time, dose: 37.5 mg/kg/injection, schedule: Q01DX009 (ip), vehicle: saline with Tween-80): 100 % of control
T/C (endpoint: mean survival time, dose: 75.0 mg/kg/injection, schedule: Q01DX009 (ip), vehicle: saline with Tween-80): 95 % of control
T/C (endpoint: mean survival time, dose: 75.0 mg/kg/injection, schedule: Q04DX003 (ip), vehicle: saline with Tween-80): 97 % of control
T/C (endpoint: mean survival time, dose: 150.0 mg/kg/injection, schedule: Q01DX009 (ip), vehicle: saline with Tween-80): 92 % of control
T/C (endpoint: mean survival time, dose: 150.0 mg/kg/injection, schedule: Q04DX003 (ip), vehicle: saline with Tween-80): 98 % of control

C[C@@H]1CC2=CC(=O)CC[C@]2(C)[C@H]2CC[C@]3(C)[C@@H](O)CC[C@H]3[C@H]12
T/C [1]: 98 % of control
T/C [2]: 119 % of control
T/C [3]: 98 % of control

CCO/C=C1\SC(=S)N(c2ccccc2OC)C1=O
T/C [1]: 107 % of control
T/C [2]: 102 % of control
T/C [3]: 107 % of control
